US7714006B1, “Methods of modifying the bioavailability of metaxalone” (King Pharmaceuticals Research & Development, Inc., priority 2001, dated 2010)
Where two headings read alike, the source gives them in different places.

Test: Food effect study: single oral Skelaxin 400 mg tablet with vs without food, healthy subjects, plasma pharmacokinetics
Format: in vivo, human
Conditions: for AUC(0-inf) / AUC(0-t) / Cmax / half-life / Tmax: both sexes, human, plasma, oral, 400 mg; for half-life: read-out: T1/2, least squares mean (converted); for Tmax: read-out: Tmax, least squares mean
Description: The effect of food on metaxalone absorption was identified in a study designed to compare the bioavailability of 400 mg of metaxalone in the formulation the drug product Skelaxin® administered to healthy volunteers with and without food.
An objective was to evaluate the bioavailability of metaxalone when administered to subjects with and without food. A single center, single dose, open-label, two-period, randomized, crossover trial in healthy subjects was conducted over a period of approximately 32 days.
Treatment A: metaxalone tablet (400 mg) administered with food
Treatment B: metaxalone tablet (400 mg) administered without food
In fed treatment condition A, study drug was taken 15 minutes after the test meal. The test meal was consumed over a 15 minute time period. There was a 6-day washout period between study drug administrations. Seventeen blood samples were collected, starting with baseline (0 hour) and at the following time points: 0.5, 1, 1.5, 2, 2.5, 3, 3.5, 4, 4.5, 5, 6, 8, 12, 16; 24, and 36 hours.
A total of 44 subjects (31 males/13 females) were enrolled and dosed. Only the plasma of subjects who completed the study were assayed and used for the pharmacokinetic analysis.
A single center, single dose, open label, two-period crossover trial was devised for study in healthy subjects. Each administration was a single oral dose of one Skelaxin® 400 mg tablet with or without food. The study drug was administered as follows:
Treatment A: One (1) 400 mg tablet of metaxalone with 240 mL of room temperature water with food: Breakfast was given to the subjects 30 Minutes prior to dosing and eaten within a 15 minute period. The dose of study drug was administered to the subjects 15 minutes after the breakfast was finished.
Treatment B: One (1) 400 mg tablet of metaxalone with 240 mL of room temperature water without food. The study drug was administered with 240 mL room temperature water. A mouth check was performed to verify that the subjects swallowed the dose. Subjects were sequentially dosed at 1-minute intervals. The actual time of dosing was recorded on the Master Flow Sheet (refer to the Appendix 16.3.2 Clinical Study Data). Drug administration (1×400 mg tablet) was assisted with 240 mL of room temperature water consumed under direct observation. Immediately after administration of product, the subject's oral cavity was checked to confirm complete medication and fluid consumption. Dosing was completed as scheduled in 42 of 44 subjects.
The drug substance, metaxalone, was dosed in tablet form. Content 400 mg; Route: Oral, Batch/Lot No.: SKLWW263F; Expiration Date: FEB03; Manufacturer: West-Ward Pharmaceutical Corp.
All pharmacokinetic parameters were analyzed by noncompartmental methods. The following PK parameters were calculated for the two PK profiles and are defined as follows: […]
Tmax: Time to maximum concentration;
Cmax: Observed maximum concentration;
kel: Slope of terminal linear portion of concentration/time curve;
T1/2: Half-life of metaxalone calculated as: 0.693/Kel;
AUC(last): Area under the curve to last quantifiable concentration as measured by the trapezoidal rule;
AUC(inf): The AUC value extrapolated to infinity calculated as:
AUC(inf)=AUC(last)+C(t)last/Kel where C(t)last is the last measurable concentration.
All statistical analyses were performed using SAS® software version 6.08 or higher. The pharmacokinetic parameters between the two treatments were compared using an appropriate ANOVA model (analysis of variance) that includes terms for treatment, sequence, and period effect. Ninety percent confidence intervals were computed for the Cmax and AUC values of the fed treatment with fasting as the reference treatment. During the study there were no protocol deviations to confound the pharmacokinetic and bioavailability analyses. Study results were not corrected for drug potency.
Differences were declared to be significant at the 5% level. […]

[1] = Treatment A: 400 mg tablet with food
[2] = Treatment B: 400 mg tablet without food
[3] = fed vs fasted, ln-transformed data

Cc1cc(C)cc(OCC2CNC(=O)O2)c1 (centres unmarked) [metaxalone, 5-[(3,5-dimethylphenoxy)methyl]-2 oxazolidinone]
Bioavailability when administered with food (400 mg tablets, single dose, with food vs without): increased | AUC(0-inf) (Treatment A: 400 mg tablet with food, read-out: AUC(inf), least squares mean): 8540 ng·h/mL | AUC(0-t) (Treatment A: 400 mg tablet with food, read-out: AUC(last), least squares mean): 8440 ng·h/mL | Cmax (Treatment A: 400 mg tablet with food, read-out: Cmax, least squares mean): 1770 ng/mL | AUC(0-inf) (Treatment A: 400 mg tablet with food, read-out: Ln-Transformed AUC(inf), geometric mean): 7630 ng·h/mL | AUC(0-t) (Treatment A: 400 mg tablet with food, read-out: Ln-Transformed AUC(last), geometric mean): 7520 ng·h/mL | Cmax (Treatment A: 400 mg tablet with food, read-out: Ln-Transformed Cmax, geometric mean): 1540 ng/mL | half-life [1]: 2.37 h | Tmax [1]: 4.29 h | AUC(0-inf) (Treatment B: 400 mg tablet without food, read-out: AUC(inf), least squares mean): 7480 ng·h/mL | AUC(0-t) (Treatment B: 400 mg tablet without food, read-out: AUC(last), least squares mean): 6960 ng·h/mL | Cmax (Treatment B: 400 mg tablet without food, read-out: Cmax, least squares mean): 983 ng/mL | AUC(0-inf) (Treatment B: 400 mg tablet without food, read-out: Ln-Transformed AUC(inf), geometric mean): 6620 ng·h/mL | AUC(0-t) (Treatment B: 400 mg tablet without food, read-out: Ln-Transformed AUC(last), geometric mean): 6090 ng·h/mL | Cmax (Treatment B: 400 mg tablet without food, read-out: Ln-Transformed Cmax, geometric mean): 865 ng/mL | half-life [2]: 9.04 h | Tmax [2]: 3.32 h | % Ratio (A/B) AUC(inf) [3]: 115.35% | % Ratio (A/B) AUC(last) [3]: 123.48% | % Ratio (A/B) Cmax [3]: 177.53%
